Here are results for 59 compounds from ChEMBL document CHEMBL4304792, “Cinnamonitrile Adjuvants Restore Susceptibility to β-Lactams against Methicillin-Resistant Staphylococcus aureus” (ACS Med Chem Lett, 2019).

By MIC is commonly meant the lowest concentration that inhibits growth of the organism.

Molecules are shown by their SMILES. ≈ marks a conversion by molar mass, not a printed value. Where only a bound is given, the exact number is not on record here.

Assay [1] deals with Staphylococcus aureus. Briefly: Antibacterial activity against Staphylococcus aureus NRS70 measured after 16 to 20 hrs in absence of 2% NaCl by microdilution broth method. (In general: Dilution methods test growth across graded concentrations, often in twofold steps.)
For assay [2], the system named is Staphylococcus aureus. In words: Potentiation of oxacillin induced antibacterial activity against Staphylococcus aureus NRS70 assessed as oxacillin MIC at 20 uM measured after 16 to 20 hrs in presence of 2% NaCl by microdilution broth method (reference value: 64 mg/L). The class given is functional.

Take `N#CC(C#N)=Cc1cccc(Oc2cc(Cl)cc(Cl)c2)c1`: the MIC was found to be 16 µg/mL (≈ 50.8 µM) in assay [1] and 64 µg/mL in assay [2].
For the compound `N#CC(C#N)=Cc1cccc(Oc2ccccc2)c1`, the MIC was determined as 32 µg/mL (≈ 130 µM) in assay [1] and 64 µg/mL in assay [2].
Regarding `CS(=O)(=O)/C(C#N)=C/c1cc(-c2ccnc3ccccc23)ccc1F`, the MIC in assay [1] was ≥ 64 µg/mL; in assay [2], 64 µg/mL.
Take `N#CC(C#N)=Cc1cccc(Cc2ccc(Cl)c(Cl)c2)c1`: the MIC in assay [1] is ≥ 64 µg/mL; in assay [2], 64 µg/mL.
With `N#CC(C#N)=Cc1cccc(S(=O)(=O)c2ccc(Cl)c(Cl)c2)c1`, the MIC in assay [1] came to 16 µg/mL (≈ 44 µM); in assay [2] it was 64 µg/mL.
For `CS(=O)(=O)/C(C#N)=C/c1cc(Cc2ccc(OC(F)(F)F)cc2)ccc1F` the same measures were ≥ 64 µg/mL and 64 µg/mL.
For `CS(=O)(=O)/C(C#N)=C/c1cc(Cc2ccc(C(F)(F)F)c(F)c2)ccc1F` the same measures were 32 µg/mL (≈ 79.7 µM) and 64 µg/mL.
Turning to `COc1c(/C=C(\C#N)S(C)(=O)=O)cccc1Cc1ccc(Cl)c(Cl)c1`, the values for the MIC in assay [1] and in assay [2] were 32 µg/mL (≈ 80.7 µM) and 8 µg/mL, respectively.
`N#CC(C#N)=Cc1cc(Cc2ccc(Cl)c(Cl)c2)ccc1F`: the MIC in assay [1] turned out to be 8 µg/mL (≈ 24.2 µM); in assay [2], 4 µg/mL.
For `N#C/C(=C\c1cc(-c2ccc(Cl)c(Cl)c2)ccc1F)S(=O)(=O)c1ccccn1` the same measures were 32 µg/mL (≈ 73.9 µM) and 16 µg/mL.
For `N#C/C(=C\c1cccc(Oc2ccc(Cl)c(Cl)c2)c1)C(N)=O` the same measures were 8 µg/mL (≈ 24 µM) and 64 µg/mL.
Regarding `CC(C)NC(=O)c1ccc(Cc2ccc(F)c(/C=C(\C#N)S(C)(=O)=O)c2)cc1`, the MIC in assay [1] was ≥ 64 µg/mL; in assay [2], 64 µg/mL.
The like results for `COc1ccc(Cc2ccc(Cl)c(Cl)c2)cc1C=C(C#N)C#N` were, in that order, ≥ 64 µg/mL and 4 µg/mL.
The like results for `COc1ccc(Cc2ccc(Cl)c(Cl)c2)c(OC)c1/C=C(\C#N)S(C)(=O)=O` were, in that order, 16 µg/mL (≈ 37.5 µM) and 64 µg/mL.
For `CS(=O)(=O)/C(C#N)=C/c1cccc(-c2ccc(Cl)c(Cl)c2)n1` the same measures were 32 µg/mL (≈ 90.6 µM) and 16 µg/mL.
Consider `CS(=O)(=O)/C(C#N)=C/c1cc(Cc2ccc(SC(F)(F)F)cc2)ccc1F`, for which the results for the MIC in assay [1] and in assay [2] were ≥ 64 µg/mL and 64 µg/mL, respectively.
Regarding `N#C/C(=C\c1cccc(Oc2ccc(Cl)c(Cl)c2)c1)c1ccccn1`, the MIC was ≥ 64 µg/mL in assay [1] and 64 µg/mL in assay [2].
Regarding `CS(=O)(=O)/C(C#N)=C/c1cc(-c2cnc3ccccc3n2)ccc1F`, the MIC in assay [1] is ≥ 64 µg/mL; in assay [2], 64 µg/mL.
For `Cc1ccc(S(=O)(=O)Nc2cccc(C=C(C#N)C#N)c2)cc1` the same measures were ≥ 64 µg/mL and 64 µg/mL.
As to `CS(=O)(=O)/C(C#N)=C/c1cc(Cc2ccc(F)c(C(F)(F)F)c2)ccc1F`, the MIC in assay [1] is ≥ 64 µg/mL; in assay [2], 64 µg/mL.
For `N#C/C(=C\c1cc(Cc2ccc(Cl)c(Cl)c2)ccc1F)C(=O)C1CC1` the same measures were ≥ 64 µg/mL and 1 µg/mL.
The like results for `CS(=O)(=O)/C(C#N)=C/c1cc(-c2ccc3ccccc3n2)ccc1F` were, in that order, ≥ 64 µg/mL and 64 µg/mL.
For `N#C/C(=C\c1cccc(Oc2ccc(Cl)c(Cl)c2)c1)c1cccs1` the same measures were ≥ 64 µg/mL and 64 µg/mL.
For `N#CC(C#N)=Cc1cccc(C(=O)Nc2ccc(Cl)c(Cl)c2)c1`, the MIC in assay [1] is ≥ 64 µg/mL; in assay [2], 16 µg/mL.
The like results for `N#C/C(=C\c1cccc(Oc2ccc(Cl)c(Cl)c2)c1)c1ccncc1` were, in that order, ≥ 64 µg/mL and 64 µg/mL.
As to `COc1ccc(Oc2cccc(C=C(C#N)C#N)c2)cc1`, the MIC in assay [1] is ≥ 64 µg/mL; in assay [2], 64 µg/mL.
With `N#CC(C#N)=Cc1cccc(Cc2ccc(F)c(Cl)c2)c1`, the MIC is ≥ 64 µg/mL in assay [1] and 64 µg/mL in assay [2].
The like results for `Cc1ccc(C(=O)/C(C#N)=C/c2cccc(Oc3ccc(Cl)c(Cl)c3)c2)cc1` were, in that order, ≥ 64 µg/mL and 64 µg/mL.
For `N#C/C(=C\c1cccc(Oc2ccc(Cl)c(Cl)c2)c1)C(=O)O` the same measures were ≥ 64 µg/mL and 64 µg/mL.
For `N#CC(C#N)=Cc1cccc(Oc2ccc(Cl)cc2)c1` the same measures were 32 µg/mL (≈ 114 µM) and 64 µg/mL.
`N#CC(C#N)=Cc1cccc(Oc2ncc(Cl)c(Cl)n2)c1`: the results for the MIC in assay [1] and in assay [2] were ≥ 64 µg/mL and 64 µg/mL, respectively.
Regarding `N#CC(C#N)Cc1cccc(Oc2ccc(Cl)c(Cl)c2)c1`, the MIC in assay [1] was 32 µg/mL (≈ 101 µM); in assay [2], 64 µg/mL.
The like results for `COc1ccc(Cc2ccc(OC(F)(F)F)c(/C=C(\C#N)S(C)(=O)=O)c2)cc1OC` were, in that order, ≥ 64 µg/mL and 64 µg/mL.
Regarding `CS(=O)(=O)/C(C#N)=C/c1cc(Cc2ccc(F)c(F)c2)ccc1F`, the minimal inhibitory concentration (MIC) in assay [1] was ≥ 64 µg/mL; in assay [2], 64 µg/mL.
The like results for `CS(=O)(=O)/C(C#N)=C/c1cc(Cc2cccc(C(F)(F)F)c2)ccc1F` were, in that order, ≥ 64 µg/mL and 64 µg/mL.
For `CCOc1ccc(Cc2ccc(Cl)c(Cl)c2)cc1/C=C(\C#N)S(C)(=O)=O` the same measures were ≥ 64 µg/mL and 16 µg/mL.
On to `COc1ccc(OC)c(Cc2cccc(C=C(C#N)C#N)c2)c1`, for which the MIC in assay [1] was ≥ 64 µg/mL; in assay [2], 64 µg/mL.
For `CS(=O)(=O)/C(C#N)=C/c1cc(Cc2cccc(OC(F)(F)F)c2)ccc1F` the same measures were ≥ 64 µg/mL and 64 µg/mL.
For `N#CC(C#N)=Cc1cccc(Cc2cccc(Cl)c2)c1` the same measures were ≥ 64 µg/mL and 64 µg/mL.
The like results for `CS(=O)(=O)/C(C#N)=C/c1cc(Cc2ccc3c(c2)OCO3)ccc1OC(F)(F)F` were, in that order, 32 µg/mL (≈ 75.2 µM) and 64 µg/mL.
With `N#CC(C#N)=Cc1cccc(Cc2ccc(Cl)c(Cl)c2)c1F`, the MIC in assay [1] worked out at 8 µg/mL (≈ 24.2 µM); in assay [2], 2 µg/mL.
As to `N#C/C(=C\c1cccc(Oc2ccc(Cl)c(Cl)c2)c1)c1nc2ccccc2s1`, the MIC in assay [1] is ≥ 64 µg/mL; in assay [2] it was 64 µg/mL.
In the case of `COc1ccc(Cc2ccc(Cl)c(Cl)c2)cc1/C=C(\C#N)S(C)(=O)=O`, the MIC in assay [1] came to 32 µg/mL (≈ 80.7 µM); in assay [2], 4 µg/mL.
On to `N#CC(C#N)=Cc1cccc(Oc2ccc(F)cc2)c1`, for which the MIC was ≥ 64 µg/mL in assay [1] and 64 µg/mL in assay [2].
For `N#CC(C#N)=Cc1cccc(Oc2ccc(Cl)nn2)c1`, the figures for the MIC in assay [1] and in assay [2] were ≥ 64 µg/mL and 64 µg/mL, respectively.
For `COc1ccc(C=C(C#N)C#N)cc1Oc1ccc(Cl)c(Cl)c1` the same measures were ≥ 64 µg/mL and 64 µg/mL.
The like results for `CS(=O)(=O)/C(C#N)=C/c1cccc(Oc2ccc(Cl)c(Cl)c2)c1` were, in that order, 16 µg/mL (≈ 43.4 µM) and 64 µg/mL.
With `N#CC(C#N)=Cc1cccc(Cc2cc(F)c(F)cc2F)c1`, the MIC in assay [1] is ≥ 64 µg/mL; in assay [2], 64 µg/mL.
The like results for `N#CC(C#N)=Cc1ccc(Oc2ccc(Cl)cc2)cc1` were, in that order, 32 µg/mL (≈ 114 µM) and 64 µg/mL.
The like results for `CS(=O)(=O)/C(C#N)=C/c1cc(Cc2ccc(Cl)c(Cl)c2)ccc1N1CCOCC1` were, in that order, ≥ 64 µg/mL and 16 µg/mL.
The like results for `CS(=O)(=O)/C(C#N)=C/c1cc(Cc2ccc(C(F)(F)F)cc2)ccc1F` were, in that order, 32 µg/mL (≈ 83.5 µM) and 64 µg/mL.
As to `CS(=O)(=O)/C(C#N)=C/c1cccc(Cc2ccc(Cl)c(Cl)c2)c1F`, the results for the MIC in assay [1] and in assay [2] were 8 µg/mL (≈ 20.8 µM) and 2 µg/mL, respectively.
For `Cc1ccc(Oc2cccc(C=C(C#N)C#N)c2)cc1` the same measures were ≥ 64 µg/mL and 64 µg/mL.
The like results for `N#CC(C#N)=Cc1cccc(Sc2ccc(Cl)c(Cl)c2)c1` were, in that order, ≥ 64 µg/mL and 64 µg/mL.
Turning to `N#CC(C#N)=Cc1cccc(Cc2ccc(Cl)c(F)c2)c1`, the MIC was ≥ 64 µg/mL in assay [1] and 64 µg/mL in assay [2].
The like results for `CC(=C(C#N)C#N)c1cccc(Cc2ccc(Cl)c(Cl)c2)c1` were, in that order, ≥ 64 µg/mL and 64 µg/mL.
On to `N#CC(C#N)=Cc1cccc(Oc2ccc(Cl)c(Cl)c2)c1`, for which the MIC in assay [1] came out at 32 µg/mL (≈ 102 µM); in assay [2], 64 µg/mL.
Take `COc1ccc(Cc2ccc(F)c(/C=C(\C#N)S(C)(=O)=O)c2)cc1C(F)(F)F`: the MIC in assay [1] is ≥ 64 µg/mL; in assay [2], 64 µg/mL.
Turning to `N#CC(C#N)=Cc1cccc(Oc2cccc(C(F)(F)F)c2)c1`, the MIC in assay [1] amounted to 32 µg/mL (≈ 102 µM); in assay [2], 64 µg/mL.
